How the values were obtained:
[1] = test system: 16-hour salivary biofilm on pellicle coated hydroxyapatite pegs; experiment: Prevention assay: prevention of bacterial attachment to pellicle coated hydroxyapatite pegs, ATP bioluminescence; assay type: cell-based
Procedure: The formulations in Examples 2-4, 6, 8 and 9 were prepared and test for prevention of bacterial attachment using the prevention assay. In this assay hydroxyapatite-coated polystyrene peg plate (96 pegs, N=8 per group) was exposed to saliva for one minute to form a pellicle at a temperature of 35 C. Then, for each formulation, eight pegs (N=8) were pre-treated for ten minutes with the formulation using an orbital shaker set to 500 RPM at room temperature. As a negative control, eight pegs (N=8) were pre-treated for ten minutes with sterile water. Next, a 16-hour salivary biofilm was grown on these polystyrene peg plates at a temperature of 35 C.
After all treatments were complete, the biofilm from each peg was neutralized and rinsed. The biofilm was harvested via sonication using a Q-Sonica Q700 Ultrasonic Liquid Processor with 431MP4-00 microplate horn Damper and 0.5:1 reverse gain booster (Q-Sonica, Newtown, Conn.). Using a Celsis Rapid Detection RapiScreen kit (Celsis International PLC, Chicago, Ill.), the bacteria were lysed with Celsis Luminex and then the adenosine triphosphate (ATP) from the lysed bacteria was measured using the bioluminescence marker Celcis Luminate and a Centro LB 960 Microplate Luminometer supplied by Berthold Technologies (Wildbad, Germany). Data were reported in log RLU (relative light units) where decreasing log RLUs indicated fewer viable bacteria remained on the biofilm substrate. The log RLUs for the prevention assay are shown on Tables 2, 4, 6, 10, 14, and 16.

[2] = HPLC quantification of compound remaining after storage at 50° C.; assay type: physicochemical; settings: storage at 50° C. for 4 and 8 weeks (Table 13 formulas)
Procedure: Briefly, formulations containing either LAE or any of the 26 compounds and standards are diluted into a solution of 50% acetonitrile and 50% water. They are evaluated on an Agilent HPLC using a Zorbax ion exchange column. In the method, 10 uL of the sample is withdrawn and ran through the HPLC with a 40% potassium phosphate (molarity at pH 3.0) 60% acetonitrile mobile phase. […] The molecule peak is auto integrated using the Online Agilent HPLC software. Comparisons are made to the standard to identify the % of compound remaining following storage.

S. mutans biofilm = experiment: S. mutans single species kill assay (in-vitro biofilm model); assay type: cell-based; settings: simple solution formulas (Table 13), 30 second treatment
Procedure: The formulations listed in Example 7 were prepared and tested using an in-vitro single species S. mutans biofilm model. A 24-hour S. mutans biofilm is grown on a polystyrene peg plate (96 pegs, N=6 per test group). The pegs were subsequently treated for thirty seconds with each of formulations H and I, as well as positive and negative controls. The treatment is applied as a single thirty (30) second treatment. The positive control is a commercially available essential oil mouth rinse. The negative control is sterile water. After treatment the biofilm is neutralized and rinsed. The biofilm is harvested via sonication using a Misonix Ultrasonic Liquid Processor (Farmingdale, N.Y.). Using a Celsis Rapid Detection RapiScreen kit (Celsis International PLC, Chicago), the bacteria are lysed with Celsis Luminex and then the adenosine triphosphate (ATP) from the lysed bacteria is measured using the bioluminescence marker LB960 Microplate Luminometer supplied by Berthold (Wildbad, Germany). Data are reported in log RLU (relative light units) where decreasing log RLUs indicates fewer viable bacteria remaining on the biofilm substrate.

[3] = simple solution solvent base formulas (Table 11)

**Q.** Which “prevention of bacterial attachment in alcohol free full formulations” value ([1]; Table 15 formulations, water as the only solvent) does the source give for `CCCCCCCC(=O)NC(CCCNC(=N)N)C(=O)NCC` (stereo not drawn) [Compound 2, [amino({[4-(ethylcarbamoyl)-4-octanamidobutyl]amino})methylidene]azanium] here?
**A.** The value was “Prevent Bacterial Attachment”.

**Q.** And the “prevention of bacterial attachment in alcohol-free full formulations” value ([1]; Table 17 formulations, water and propylene glycol as solvents)?
**A.** Its value is “Prevent Bacterial Attachment”.

**Q.** What about the “ability to prevent bacterial attachment” value [1, 3] of the same molecule?
**A.** Its value is “have the ability to prevent bacterial attachment”.

**Q.** What about the “preventing bacterial attachment the best” value [1, 3] of the same molecule?
**A.** Its value is “preventing bacterial attachment the best”.

**Q.** What about the “structural stability via HPLC in simple solution formulations” value [2] of the same molecule?
**A.** The value was “significant decrease in peak area”.

**Q.** What about the “log reduction in S. mutans” value (S. mutans biofilm) of the same molecule?
**A.** The value was “do not Result in More than a One Log Reduction in S. mutans”.

From patent publication US11820729B2 (Johnson & Johnson Consumer Inc., priority 2014, dated 2023)
